Test results from patent US10131644B2, “Aryl sultam derivatives as RORc modulators” (Genentech, Inc., priority 2014, dated 2018).

Biological target: T1, RORc (Homo sapiens, UniProt P51449)
T1 sequence (P51449 269-508 limits assumed): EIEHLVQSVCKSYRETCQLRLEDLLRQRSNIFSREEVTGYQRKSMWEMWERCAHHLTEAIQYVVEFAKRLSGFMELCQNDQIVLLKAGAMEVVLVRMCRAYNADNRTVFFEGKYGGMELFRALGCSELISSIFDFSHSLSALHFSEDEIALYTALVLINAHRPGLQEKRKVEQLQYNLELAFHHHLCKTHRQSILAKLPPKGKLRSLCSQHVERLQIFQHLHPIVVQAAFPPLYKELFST
Assay: In vitro RORc ligand binding assay (25-[3H]hydroxycholesterol displacement)
Details: IC50, IC50 values for RORc; unit inferred

Row | IC50 | Compound
1 | 4.35 nM | CNC(=O)COC1(c2cc(F)c(CN3[C@@H](C)CC[C@H](c4ccccc4)S3(=O)=O)cc2F)COC1 [Compound 177, 2-[3-[2,5-difluoro-4-[[(3S,6R)-3-methyl-1,1-dioxo-6-phenyl-thiazinan-2-yl]methyl]phenyl]oxetan-3-yl]oxy-N-methyl-acetamide]
2 | 55.2 nM | C[C@H]1CC[C@H](c2ccccc2)S(=O)(=O)N1Cc1ccc([C@]2(C(N)=O)C[C@@H](O)C2)cc1F [Compound 183, 1-[3-fluoro-4-[[(3S,6R)-3-methyl-1,1-dioxo-6-phenyl-thiazinan-2-yl]methyl]phenyl]-3-hydroxy-cyclobutanecarboxamide]
3 | 138 nM | C[C@H]1CC[C@H](c2ccccc2)S(=O)(=O)N1Cc1ccc(C2(NC(=O)C(O)CO)CCOCC2)cc1F (stereo partly drawn) [Compound 111, N-[4-[3-fluoro-4-[[(3S,6R)-3-methyl-1,1-dioxo-6-phenyl-thiazinan-2-yl]methyl]phenyl]tetrahydropyran-4-yl]-2,3-dihydroxy-propanamide]
4 | 390 nM | C[C@H]1CC[C@H](c2ccccc2)S(=O)(=O)N1Cc1cc(F)c(C2(C(=O)NCC#N)CC2)cc1F [Compound 128, N-(cyanomethyl)-1-[2,5-difluoro-4-[[(3S,6R)-3-methyl-1,1-dioxo-6-phenyl-thiazinan-2-yl]methyl]phenyl]cyclopropane-carboxamide]
5 | 23.7 nM | C[C@H]1CC[C@H](c2ccccc2)S(=O)(=O)N1Cc1cc(F)c(C2(CCC(N)=O)CC2)cc1F [Compound 139, 3-[1-[2,5-difluoro-4-[[(3S,6R)-3-methyl-1,1-dioxo-6-phenyl-thiazinan-2-yl]methyl]phenyl]cyclopropyl]propanamide]
6 | 150 nM | C[C@H]1CC[C@H](c2ccccc2)S(=O)(=O)N1Cc1ccc([C@]2(C#N)CC[C@@H](n3cnnc3)CC2)cc1 [Example 10, 1-[4-((3S,6R)-3-Methyl-1,1-dioxo-6-phenyl-[1,2]thiazinan-2-ylmethyl)-phenyl]-4-[1,2,4]triazol-4-yl-cyclohexanecarbonitrile]
7 | 346 nM | C[C@H]1CC[C@H](c2ccccc2)S(=O)(=O)N1Cc1cc(F)c(C2(C(N)=O)CC2)cc1F [Compound 125, 1-[2,5-difluoro-4-[[(3S,6R)-3-methyl-1,1-dioxo-6-phenyl-thiazinan-2-yl]methyl]phenyl]cyclopropane-carboxamide]
8 | 63 nM | C[C@H]1CC[C@H](c2ccccc2)S(=O)(=O)N1Cc1ccc(C2([C@@H](O)CO)CCOCC2)cc1F [Compound 98, (1R)-1-[4-[3-fluoro-4-[[(3S,6R)-3-methyl-1,1-dioxo-6-phenyl-thiazinan-2-yl]methyl]phenyl]tetrahydropyran-4-yl]ethane-1,2-diol]
9 | 240 nM | C[C@H]1CC[C@@H](c2ccccc2)S(=O)(=O)N1Cc1cc(F)c(C2(CO)CCC(O)CC2)cc1F (some centres unmarked) [Compound 132]
10 | 8.1 nM | C[C@H]1CC[C@H](c2ccccc2)S(=O)(=O)N1Cc1cc(F)c(C2(CO)CCC(O)CC2)cc1F (stereo partly drawn) [Compound 129, 4-[2,5-difluoro-4-[[(3S,6R)-3-methyl-1,1-dioxo-6-phenyl-thiazinan-2-yl]methyl]phenyl]-4-(hydroxymethyl)cyclohexanol]
11 | 37.8 nM | C[C@H]1CC[C@H](c2ccccc2)S(=O)(=O)N1Cc1ccc(C2(/C(N)=N\O)CCOCC2)cc1F [Compound 93, 4-[3-fluoro-4-[[(3S,6R)-3-methyl-1,1-dioxo-6-phenyl-thiazinan-2-yl]methyl]phenyl]-N′-hydroxy-tetrahydropyran-4-carboxamidine]
12 | 93.2 nM | CC(=O)NC1(c2ccc(CN3[C@@H](C)CC[C@H](c4ccccc4)S3(=O)=O)c(F)c2)CCOCC1 [Compound 94, N-[4-[3-fluoro-4-[[(3S,6R)-3-methyl-1,1-dioxo-6-phenyl-thiazinan-2-yl]methyl]phenyl]tetrahydropyran-4-yl]acetamide]
13 | 11.4 nM | CC(=O)N1CCC(C(N)=O)(c2cc(F)c(CN3[C@@H](C)CC[C@H](c4ccccc4)S3(=O)=O)cc2F)CC1 [Compound 149, 1-acetyl-4-[2,5-difluoro-4-[[(3S,6R)-3-methyl-1,1-dioxo-6-phenyl-thiazinan-2-yl]methyl]phenyl]piperidine-4-carboxamide]
14 | 6100 nM | C[C@H]1CC[C@@H](c2ccccc2)S(=O)(=O)N1Cc1ccc(C2(C(=O)O)CCOCC2)cc1F [Compound 45, 4-[3-Fluoro-4-((3S,6S)-3-methyl-1,1-dioxo-6-phenyl-[1,2]thiazinan-2-ylmethyl)-phenyl]-tetrahydro-pyran-4-carboxylic acid]
15 | 11.7 nM | C[C@H]1CC[C@H](c2ccccc2)S(=O)(=O)N1Cc1cc(F)c(C2(OCC(O)CO)CCOCC2)cc1F (stereo in doubt) [Compound 170, (2S)-3-[4-[2,5-difluoro-4-[[(3S,6R)-3-methyl-1,1-dioxo-6-phenyl-thiazinan-2-yl]methyl]phenyl]tetrahydropyran-4-yl]oxypropane-1,2-diol]
16 | 1100 nM | C[C@H]1CC[C@H](c2ccccc2)S(=O)(=O)N1Cc1ccc(C2(C(=O)O)CCOCC2)cc1F [Compound 44, 4-[3-Fluoro-4-((3S,6R)-3-methyl-1,1-dioxo-6-phenyl-[1,2]thiazinan-2-ylmethyl)-phenyl]-tetrahydro-pyran-4-carboxylic acid]
17 | 31.2 nM | C[C@H]1CC[C@H](c2ccccc2)S(=O)(=O)N1Cc1ccc(C2(CC#N)CCOCC2)cc1F [Compound 77, 2-[4-[3-fluoro-4-[[(3S,6R)-3-methyl-1,1-dioxo-6-phenyl-thiazinan-2-yl]methyl]phenyl]tetrahydropyran-4-yl]acetonitrile]
18 | 55.3 nM | C[C@H]1CC[C@H](c2ccccc2)S(=O)(=O)N1Cc1cc(F)c(C2(N[S+]([O-])C(C)(C)C)COC2)cc1F (stereo partly drawn) [Compound 191, N-[3-[2,5-difluoro-4-[[(3S,6R)-3-methyl-1,1-dioxo-6-phenyl-thiazinan-2-yl]methyl]phenyl]oxetan-3-yl]-2-methyl-propane-2-sulfinamide]
19 | 68.9 nM | C[C@H]1CC[C@H](c2ccccc2)S(=O)(=O)N1Cc1ccc(C2([C@H](O)CO)CCOCC2)cc1F [Compound 103, (1S)-1-[4-[3-fluoro-4-[[(3S,6R)-3-methyl-1,1-dioxo-6-phenyl-thiazinan-2-yl]methyl]phenyl]tetrahydropyran-4-yl]ethane-1,2-diol]
20 | 206 nM | C[C@H]1CC[C@H](c2ccccc2)S(=O)(=O)N1Cc1ccc(C2(CO)CC2)cc1F [Compound 112, [1-[3-fluoro-4-[[(3S,6R)-3-methyl-1,1-dioxo-6-phenyl-thiazinan-2-yl]methyl]phenyl]cyclopropyl]methanol]
21 | 4.9 nM | CC(=O)N1CC(OCC(N)=O)(c2cc(F)c(CN3[C@@H](C)CC[C@H](c4ccccc4)S3(=O)=O)cc2F)C1 [Compound 175, 2-[1-acetyl-3-[2,5-difluoro-4-[[(3S,6R)-3-methyl-1,1-dioxo-6-phenyl-thiazinan-2-yl]methyl]phenyl]azetidin-3-yl]oxyacetamide]
22 | 47.2 nM | C[C@H]1CC[C@H](c2ccccc2)S(=O)(=O)N1Cc1cc(F)c(C2(OCC(=O)N(C)CCO)CCOCC2)cc1F [Compound 157, 2-[4-[2,5-difluoro-4-[[(3S,6R)-3-methyl-1,1-dioxo-6-phenyl-thiazinan-2-yl]methyl]phenyl]tetrahydropyran-4-yl]oxy-N-(2-hydroxyethyl)-N-methyl-acetamide]
23 | 26.8 nM | C[C@H]1CC[C@H](c2ccccc2)S(=O)(=O)N1Cc1cc(F)c(C2(C#N)CCOCC2)cc1F [Compound 122, 4-[2,5-difluoro-4-[[(3S,6R)-3-methyl-1,1-dioxo-6-phenyl-thiazinan-2-yl]methyl]phenyl]tetrahydropyran-4-carbonitrile]
24 | 480 nM | C[C@H]1CC[C@H](c2ccccc2)S(=O)(=O)N1Cc1ccc(C2(C(=O)NCCN)CCOCC2)cc1F [Compound 52, N-(2-aminoethyl)-4-[3-fluoro-4-[[(3S,6R)-3-methyl-1,1-dioxo-6-phenyl-thiazinan-2-yl]methyl]phenyl]tetrahydropyran-4-carboxamide]
25 | 102 nM | C[C@H](NC1(c2ccc(CN3[C@@H](C)CC[C@H](c4ccccc4)S3(=O)=O)c(F)c2)CCOCC1)C(N)=O [Compound 185, (2S)-2-[[4-[3-fluoro-4-[[(3S,6R)-3-methyl-1,1-dioxo-6-phenyl-thiazinan-2-yl]methyl]phenyl]tetrahydropyran-4-yl]amino]propanamide]
26 | 403 nM | C[C@H]1CC[C@H](c2ccccc2)S(=O)(=O)N1Cc1ccc(C2(C(=O)NCC(=O)N(C)C)CCOCC2)cc1F [Compound 56, N-[2-(dimethylamino)-2-oxo-ethyl]-4-[3-fluoro-4-[[(3S,6R)-3-methyl-1,1-dioxo-6-phenyl-thiazinan-2-yl]methyl]phenyl]tetrahydropyran-4-carboxamide]
27 | 89 nM | COCCNC(=O)C1(c2ccc(CN3[C@@H](C)CC[C@H](c4ccccc4)S3(=O)=O)c(F)c2)CCOCC1 [Compound 64, 4-[3-fluoro-4-[[(3S,6R)-3-methyl-1,1-dioxo-6-phenyl-thiazinan-2-yl]methyl]phenyl]-N-(2-methoxyethyl)tetrahydropyran-4-carboxamide]
28 | 71.5 nM | C[C@H]1CC[C@H](c2ccccc2)S(=O)(=O)N1Cc1cc(F)c(C2(N)COC2)cc1F [Compound 190, 3-[2,5-difluoro-4-[[(3S,6R)-3-methyl-1,1-dioxo-6-phenyl-thiazinan-2-yl]methyl]phenyl]oxetan-3-amine]
29 | 11.6 nM | C[C@H]1CC[C@H](c2ccccc2)S(=O)(=O)N1Cc1cc(F)c(C2(OCC(O)CO)CCOCC2)cc1F (stereo in doubt) [Compound 171, (2R)-3-[4-[2,5-difluoro-4-[[(3S,6R)-3-methyl-1,1-dioxo-6-phenyl-thiazinan-2-yl]methyl]phenyl]tetrahydropyran-4-yl]oxypropane-1,2-diol]
